Data on five molecules can be found in US20140128272A1, “Method for Inducing Dormancy of Cancer Tissue-Derived Cell Mass and Method for Evaluating Treating Means with the Use of Cancer-Tissue-Derived Cell Mass” (Osaka Prefectural Hospital Organization, priority 2012, published 2014).

Test [1] has as its system cancer tissue-derived cell mass (sample C45, human colon cancer). The test can be described thus: effect of growth factors on proliferation of cancer tissue-derived cell mass under 1% oxygen. The test is classed as cell-based. Conditions: added to dormancy medium under hypoxic conditions (1% oxygen); heregulin 10 ng/ml, IGF 200 ng/ml, or both; FIG. 4. The protocol:
The cancer tissue-derived cell mass obtained in Example 2 was purified as a composition and cultured in a dormancy medium (20 ml): DMEM/F12 with GlutaMAX (Invitrogen) 18.5 ml, 25% BSA (Invitrogen) 1.44 ml, and 2ME Stock […] in a 6 cm non-treated dish (EIKEN CHEMICAL: AG2000) in a personal gas incubator (APM-30D, ASTEC Co., Ltd.) or INVIVO2 400 (RUSKINN) for 15 days at 37° C. under the conditions of an oxygen concentration of 1%.

The test system is the same in test [2]. The test can be described thus: in vitro drug sensitivity test with cancer tissue-derived cell mass, normal versus dormant state. The test is classed as cell-based. Particulars: day 7, 5-FU and oxaliplatin 0.01-10 μg/ml, SN38 0.001-1 ng/ml, FIG. 6; for response of cancer tissue-derived cell mass to drug concentration (relative increase rate of area, no drug = 1): dormant state (dormancy medium); for proliferation of cancer cells in the cancer tissue-derived cell mass (relative increase rate of area, no drug = 1): normal culture conditions (StemPro hESC SFM medium). The protocol: Using SN38,5-FU, and oxaliplatin known as anti-cancer agents, a drug sensitivity test was performed with C45 sample of Example 2. The test was proceeded by culturing the C45 obtained in example 2, in 1 cc of a dormancy medium or StemPro hESC SFM (Gibco; A10007-01) medium. Further, as to each drug, 5-FU and oxaliplatin were applied at concentrations of 0.01 μg/ml, 0.1 μg/ml, 1 μg/ml, and 10 μg/ml, and SN38 was applied at concentrations of 0.001 ng/ml, 0.01 ng/ml, 0.1 ng/ml, and 1 ng/ml, and comparative evaluation of the culture state was performed on day 7 after each culture. An increase rate of the area of the cancer tissue-derived cell mass was relatively expressed when the increase rate of the area under culture with no drug application was expressed as 1.

On to heregulin, for which, in test [1], the “growth of the cancer tissue-derived cell mass” value is “grew up rapidly”.
Regarding `CCc1c2c(nc3ccc(O)cc13)-c1cc3c(c(=O)n1C2)COC(=O)[C@]3(O)CC` [SN38], in test [2], the “response of cancer tissue-derived cell mass to drug concentration (relative increase rate of area, no drug = 1)” value is recorded as “did not respond to the concentration of drugs at all or responded little to it” and the “proliferation of cancer cells in the cancer tissue-derived cell mass (relative increase rate of area, no drug = 1)” value is given as “suppressed”.
In the case of insulin-like growth factor [IGF], the “growth of the cancer tissue-derived cell mass” value in test [1] was “grew up rapidly”.
As to `O=c1[nH]cc(F)c(=O)[nH]1` [5-FU], in test [2], the “response of cancer tissue-derived cell mass to drug concentration (relative increase rate of area, no drug = 1)” value is “did not respond to the concentration of drugs at all or responded little to it” and the “proliferation of cancer cells in the cancer tissue-derived cell mass (relative increase rate of area, no drug = 1)” value is reported as “suppressed”.
The like results for `O=C1[O][Pt]2([NH][C@@H]3CCCC[C@H]3[NH]2)[O]C1=O` [oxaliplatin] were, in that order, “did not respond to the concentration of drugs at all or responded little to it” and “suppressed”.
